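Growth conditions: 96-well plates. Treatment: test compound, 48 hours, 5 concentrations. Analysis: linear interpolation between bracketing concentrations; unreached endpoints set to highest concentration. Here, GI50 denotes the concentration required for 50% inhibition of growth. TGI marks complete inhibition of growth.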
Columns and labels:
Test in all cases: inhibition of tumour cell growth, NCI panel, 48 h
MALME-3M melanoma = system: MALME-3M melanoma
HCT-15 colon = system: HCT-15 colon
NCI/ADR-RES ovarian = system: NCI/ADR-RES ovarian
M14 melanoma = system: M14 melanoma
UO-31 renal = system: UO-31 renal
T-47D breast = system: T-47D breast
HCT-116 colon = system: HCT-116 colon
SW-620 colon = system: SW-620 colon
K-562 leukemia = system: K-562 leukemia
SK-MEL-2 melanoma = system: SK-MEL-2 melanoma

SMILES	GI50 (MALME-3M melanoma)	TGI (MALME-3M melanoma)	GI50 (HCT-15 colon)	TGI (HCT-15 colon)	GI50 (NCI/ADR-RES ovarian)	TGI (NCI/ADR-RES ovarian)	GI50 (M14 melanoma)	TGI (M14 melanoma)	GI50 (UO-31 renal)	TGI (UO-31 renal)	GI50 (T-47D breast)	TGI (T-47D breast)	GI50 (HCT-116 colon)	TGI (HCT-116 colon)	GI50 (SW-620 colon)	TGI (SW-620 colon)	TGI (K-562 leukemia)	TGI (SK-MEL-2 melanoma)	GI50 (SK-MEL-2 melanoma)	GI50 (K-562 leukemia)
O=C(O)c1cn(C2CC2)c2cc(N3CCNCC3)c(F)cc2c1=O	74.6 µM	> 100 µM	> 100 µM	> 100 µM	> 100 µM	> 100 µM	> 100 µM	> 100 µM	> 100 µM	> 100 µM	70 µM	> 100 µM	> 100 µM	> 100 µM	> 100 µM	> 100 µM	–	–	–	–
O=C(Oc1ccc2c(-c3ccccc3)c(C(=O)Nc3ccc(Cl)cc3)c(=O)oc2c1)c1ccccc1	–	> 100 µM	–	> 100 µM	–	–	–	> 100 µM	–	> 100 µM	–	–	–	> 100 µM	–	> 100 µM	> 100 µM	> 100 µM	–	–
C=C1CCC2C(C)(CO)C(O)CCC2(C)C1C/C=C1/CCOC1=O (centres undefined)	–	> 100 µM	–	> 100 µM	–	–	–	> 100 µM	–	> 100 µM	–	–	–	> 100 µM	–	> 100 µM	> 100 µM	> 100 µM	–	–
COc1cc(C(=O)O/N=C(\N)Cc2cccc3ccccc23)cc(OC)c1OC	8.4 µM	21.9 µM	6.41 µM	21.4 µM	7.02 µM	59.2 µM	–	–	5.26 µM	19.6 µM	2.95 µM	12.5 µM	3.13 µM	13 µM	11.7 µM	27.8 µM	–	29.4 µM	14.9 µM	–
O=S1c2ccccc2NC(c2ccc3ccccc3c2)CC1c1ccccc1 (centres undefined)	–	> 100 µM	–	54 µM	–	–	–	> 100 µM	–	47.9 µM	–	–	–	–	–	42.7 µM	37.5 µM	> 100 µM	–	–
CN(C)CCNC(=O)c1c2ccccc2cc2ccccc12	–	> 100 µM	–	> 100 µM	–	–	–	30.7 µM	–	> 100 µM	–	–	–	> 100 µM	–	> 100 µM	67.1 µM	36.8 µM	–	–
Oc1ccc(Oc2cnc3cc(Cl)ccc3n2)cc1	34.7 µM	> 100 µM	33.7 µM	> 100 µM	35.7 µM	> 100 µM	46.5 µM	> 100 µM	3.88 µM	94 µM	32.8 µM	> 100 µM	37.1 µM	> 100 µM	38.2 µM	> 100 µM	> 100 µM	–	–	37.7 µM
CC(C)C[CH2][Ge]([CH2]CC(C)C)([CH2]CC(C)C)[CH2]CC(C)C	–	–	> 100 µM	> 100 µM	> 100 µM	> 100 µM	> 100 µM	> 100 µM	> 100 µM	> 100 µM	> 100 µM	> 100 µM	> 100 µM	> 100 µM	> 100 µM	> 100 µM	> 100 µM	> 100 µM	> 100 µM	> 100 µM
COc1ccc(N=Nc2c(-c3ccccc3)nn(C(=O)CC(=O)Nc3ccccc3Cl)c2-c2ccccc2)cc1	–	> 100 µM	–	> 100 µM	–	–	–	> 100 µM	–	> 100 µM	–	–	–	> 100 µM	–	> 100 µM	> 100 µM	–	–	–
COc1ccc2c(c1)[nH]c(=O)c1c3cc(OC)c(OC)cc3cn21	16.6 µM	44.1 µM	< 0.01 µM	1.19 µM	< 0.01 µM	< 0.0133 µM	< 0.01 µM	11.8 µM	< 0.01 µM	17.4 µM	15.4 µM	35.6 µM	< 0.01 µM	1.19 µM	< 0.01 µM	1.52 µM	–	20.8 µM	0.0303 µM	–
CN1C(=O)CCC1c1ccc2c(c1)oc(=O)n2C (centres undefined)	–	> 100 µM	–	> 100 µM	–	–	–	> 100 µM	–	> 100 µM	–	–	–	> 100 µM	–	> 100 µM	> 100 µM	> 100 µM	–	–
O=c1ccn(C2(CO)C=C(CO)C(O)C2O)c(=O)[nH]1 (centres undefined)	–	> 25.7 µM	–	> 25.7 µM	–	–	–	> 25.7 µM	–	> 25.7 µM	–	–	–	> 25.7 µM	–	> 25.7 µM	> 25.7 µM	> 25.7 µM	–	–
Cc1ccc(/C=C/C(=O)c2ccc([N+](=O)[O-])cc2)cc1	–	> 100 µM	–	> 100 µM	–	–	–	> 100 µM	–	> 100 µM	–	–	–	> 100 µM	–	> 100 µM	> 100 µM	> 100 µM	–	–
CCSc1ccc([C@@H]2[C@@H](N)C(=O)N2c2cc(OC)c(OC)c(OC)c2)cc1	> 100 µM	> 100 µM	0.0654 µM	> 100 µM	0.13 µM	> 100 µM	0.0456 µM	> 100 µM	0.59 µM	> 100 µM	–	–	0.0448 µM	> 100 µM	0.0476 µM	> 100 µM	> 100 µM	> 100 µM	0.047 µM	0.0359 µM
ClC1c2ccccc2C2(c3ccccc3)OOC1(c1ccccc1)O2 (centres undefined)	–	7.14 µM	–	3.24 µM	–	–	–	2.76 µM	–	3.06 µM	–	–	–	–	–	2.96 µM	–	5.64 µM	–	–
CC(C)CN1CC(C)C(=O)NC1=O (centres undefined)	–	> 100 µM	–	–	–	–	–	–	–	> 100 µM	–	–	–	–	–	> 100 µM	> 100 µM	> 100 µM	–	–
N#Cc1cc([N+](=O)[O-])ccc1NC(=O)C(=O)C(C(=O)c1ccc2ccccc2c1)C1OCc2ccccc21 (centres undefined)	–	26.8 µM	–	37.7 µM	–	–	–	30.1 µM	–	26.5 µM	–	–	–	16.2 µM	–	41.1 µM	65.2 µM	16.2 µM	–	–
CN(C)C(=S)/N=c1\ss/c(=N\C(=S)N(C)C)n1Cc1ccco1	–	> 100 µM	–	> 100 µM	–	–	–	> 100 µM	–	> 100 µM	–	–	–	> 100 µM	–	> 100 µM	> 100 µM	> 100 µM	–	–
O=C(Cc1ccc(Nc2ccnc(C(F)(F)F)c2)cc1)Nc1cc(Cl)ccc1O	3.83 µM	32.7 µM	5.66 µM	61 µM	3.46 µM	24.5 µM	12.3 µM	33.6 µM	2.84 µM	18.2 µM	2.77 µM	11.3 µM	5.12 µM	26.5 µM	6.23 µM	21.4 µM	12 µM	–	–	2.96 µM
COc1ccc(OC(C)C(=O)O)c2c1CCCC2=O (centres undefined)	–	> 100 µM	–	> 100 µM	–	–	–	> 100 µM	–	> 100 µM	–	–	–	> 100 µM	–	> 100 µM	> 100 µM	> 100 µM	–	–
